Results: patent publication US5677459A, “Methods for the preparation of modulators of acetylcholine receptors” (Sibia Neurosciences, Inc., priority 1995, dated 1997)

Key:
[1] = biological target: muscarinic acetylcholine receptors; assay: ^3 H-QNB (quinuclidinyl benzilate) binding/displacement, rat cerebral membranes; conditions: ^3 H-QNB 60 pM, rat cerebral membranes
[2] = test system: ^3 H-Norepinephrine release, rat hippocampus slices; assay: Ligand-stimulated ^3 H-norepinephrine release from rat hippocampus slices; assay type: cell-based; conditions: in vitro slices, 300 μM
[3] = test system: ^3 H-Dopamine release, rat olfactory tubercles; assay: Ligand-stimulated ^3 H-dopamine release from rat olfactory tubercles; assay type: cell-based; conditions: in vitro slices, 300 μM
Procedure: Measurement of ^3 H-dopamine release from rat striatal slices was performed according to the method of Sacaan et al. (J. Neurochem. 59:245 (1992)). Male Sprague-Dawley rats (250-300 g) were decapitated and the striata or olfactory tubercles dissected quickly on a cold glass surface. The tissue was chopped to a thickness of 300 μm with a McIlwain tissue chopper. After chopping again at right angles the tissue was dispersed and incubated for 10 min. at 37° C. in oxygenated Kreb's buffer. ^3 H-Dopamine (40 Ci/mmol, NEN- Dupont, Boston, Mass.) was added (50 nM) and the tissue was incubated for 30 min. in Kreb's buffer containing 10 μM pargyline and 0.5 mM ascorbic acid. Aliquots of the minced tissue were then transferred to chambers of a Brandel Superfusion system in which the tissue was supported on Whatman GF/B filter discs. The tissue was then superfused with buffer at a constant flow rate of 0.3 ml/min by means of a Brandel peristaltic pump. The perfusate was collected in plastic scintillation vials in 3-min fractions, and the radioactivity was estimated by scintillation spectrophotometry. The superfusate for the first 120 min was discarded. After two baseline fractions had been collected, the superfusion buffer was switched to fresh buffer with or without compound of interest. At the end of the experiment the filter and the tissue were removed, and the radiolabeled neurotransmitter content was estimated after extraction into scintillation fluid. The fractional efflux of radiolabeled neurotransmitter was estimated as the amount of radioactivity in the perfusate fraction relative to the total amount in the tissue.
Results of studies of the effects of an invention compound (as compared to the effect of nicotine) on the release of neurotransmitters from rat brain slices are presented in Table II. Results presented in Part A of the Table are expressed as the percent fractional release and results presented in Part B of the Table are expressed as a percentage, relative to nicotine response.

[4] = test system: rats with unilateral 6-hydroxydopamine lesions of the nigrostriatal dopamine pathway; assay type: in vivo, rat (male Sprague-Dawley); conditions: 20 mg/kg, s.c., per one hour interval
Procedure: Selective lesions of the brain dopamine pathway using the neurotoxin 6-hydroxydopamine (6-OHDA) in rats can be used as an experimental approach to Parkinson's disease. Unilateral lesions of the nigrostriatal dopamine pathway induce a postural asymmetry which becomes manifested as rotation when the animals are activated by dopamine releasers or dopamine agonists. When amphetamine and other stimulant drugs that induce pre-synaptic release of dopamine from intact nerve terminals are administered, the rats rotate in a direction ipsilateral to the lesion. In contrast, when the rats are injected with post-synaptic dopamine receptor agonists, such as apomorphine, they turn in a contralateral direction, due to the development of supersensitive dopamine receptors in the lesioned side. Thus, the 6-OHDA model can be used to determine if a suspected dopaminergic agent is active, and to differentiate whether such action is pre- or post-synaptic.
The effects of invention compounds on rotational behavior in 6-hydroxydopamine denervated rats were evaluated using the procedure of Ungerstedt and Arbutknott, Brain Res. 24:485-493 (1970). Male Sprague-Dawley rats (Zivic Miller) weighing 170-200 gm were used in the 6-OHDA procedure. The ascending nigrostriatal dopamine pathway was lesioned by unilateral stereotaxic injection of 6-OHDA (8.0 μg) into one substantia nigra. All injections of 6-OHDA were preceded by desmethylimipramine (25 mg/kg i.p.) and pargyline (75 mg/kg i.p.) approximately 30 minutes prior to undergoing stereotaxic surgery for 6-OHDA infusion into the substantia nigra. After one week of recovery from surgery, the effectiveness of the lesions was verified by noting the response of the animals to apomorphine (0.2 mg/kg, s.c.). Only rats with a minimum rate of 80 contralateral turns per 30 minutes (a sign of more than 80-90% dopamine depletion after a 6-OHDA lesion) were used. Two weeks later, the selected rats were tested with invention and reference compounds using an automated rotometer system to record the number and direction of rotations. In order to distinguish spontaneous (non-specific)rotations from induced rotations (specific to the effect of the drug), each rat was used as its own control, employing the following procedure:
The rat was placed in the rotometer system for acclimatation for 15 minutes, the vehicle administered subcutaneously, the rat's rotations recorded for one hour, then test compound was administered s.c. and rotations again recorded for one hour. The number of ipsilateral rotations induced by vehicle was then compared to the number of ipsilateral rotations induced by test compound. Statistical analysis of the data was carried out using Student's t-test (paired).

SMILES | IC50 [1] | percent fractional release, ^3 H-Norepinephrine, Hippocampus [2] | percent fractional release, ^3 H-Dopamine, Olfactory Tubercles [3] | Percent change from control (ipsilateral rotations) [4]
C#Cc1cncc(C2CCCN2C)c1.O=C(O)/C=C/C(=O)O (racemic) [R^5 = ethynyl (racemic), 5-Ethynyl-3-(1-methyl-2-pyrrolidinyl)pyridine fumarate] | 10.1 µM | 0.69% | 6.68% | +406%
CN1CCCC1c1cncc(-c2ccc(O)c(Cl)c2)c1.O=C(O)/C=C/C(=O)O (stereo not shown) [R^5 = 3-chloro-4-hydroxyphenyl, 5-(4-hydroxy-3-chlorophenyl)-3-(1-methyl-2-pyrrolidinyl)pyridine fumarate] | > 10 µM | 2.5% | 11.4% | -40%
CN1CCCC1c1cncc(-c2cccc(Cl)c2)c1.O=C(O)/C=C/C(=O)O (stereo not shown) [R^5 = 3-chlorophenyl, 5-(3-Chlorophenyl)-3-(1-methyl-2-pyrrolidinyl) pyridine fumarate] | 3.7 µM | 1.45% | 3.25% | +62%
COc1ccc(-c2cncc(C3CCCN3C)c2)cc1F.O=C(O)/C=C/C(=O)O (stereo not shown) [R^5 = 3-fluoro-4-methoxyphenyl, 5-(3-Fluoro-4-methoxyphenyl)-3-(1-methyl-2-pyrrolidinyl)pyridine fumarate] | 30.5 µM | 0.73% | 2.3% | -3%
